Laboratory results: US20240043400A1, “Octahydroisoquinolinyl Derivatives” (UCB Biopharma SRL, priority 2020, published 2024)

Tests used:
dopamine D1 receptor = molecular target: T1, dopamine D1 receptor (Homo sapiens, UniProt P21728); test: cAMP HTRF potentiation assay (in the presence of dopamine); type: cell-based; details: potentiation of cAMP with [EC20] of dopamine (1.1 nM); LMtk (Ltk−) mouse fibroblast cells expressing the dopamine D1 receptor
T1 construct: host or cells: LMtk (Ltk-) mouse fibroblast cells, kept under Geneticin
Experimental: The potentiation assay measures the ability of compounds to increase the levels of cAMP produced by a low-threshold concentration of dopamine. The concentration of dopamine used ([EC20]) is designed to produce 20% stimulation compared to the maximal response (100%) seen with increasing the concentration of dopamine. To measure this potentiation we incubate increasing concentrations of the compound with the [EC20] of dopamine and measure the potentiation as increases in cAMP production. The pEC50 of a compound is the −log 10 of the concentration of the compound which produces 50% of the potentiation of the cAMP levels and the Erel is the relative efficacy, defined as the maximal % potentiation produced by the compound compared to the maximal response produced by increasing concentrations of dopamine (Erel of 1=dopamine maximum response).
Cells were cultured at 37° C. in a humidified atmosphere of 5% CO2. Cells were grown in DMEM-F12+GlutaMAX™-1 medium (GIBCO®, Invitrogen, Merelbeke, Belgium) containing 10% fetal bovine serum (BioWhittaker®, Lonza, Verviers, Belgium), 400 μg/mL Geneticin (GIBCO®), 100 IU/mL Penicillin and 100 IU/mL Streptomycin (Pen-Strep solution, BioWhittaker®).
The measurement of changes in intracellular cyclic adenosinemonophopshpate (cAMP) was determined using the HTRF cAMP dynamic assay kit from CisBio (Codolet, France). Using homogenous time-resolved fluoresence technology, the assay is based on competition between native cAMP produced by cells and cAMP labelled with the dye d2. The tracer binding is determined by an anti-cAMP antibody labeled with cryptate. The effects of the compound alone (agonism) was determined by performing the assay in the absence of dopamine, whilst the effect of the compound as a positive allosteric modulator (PAM) was determined in the presence of an EC20 concentration of dopamine. Cells (20,000 per well) are incubated in 384 plates for 1 h at rt in a final volume of 20 μLHBSS (Lonza, with calcium, magnesium and HEPES buffer 20 mM, pH 7.4) containing: isobutyl methylxanthine (Sigma, 0.1 mM final), varying concentrations of test compound (typically 10^−9.5 M to 10^−4.5 M) in the presence and absence of dopamine (1.1 nM final). The reaction is then terminated and the cells lysed by adding the d2 detection reagent in lysis buffer (10 μL) and the cryptate reagent in lysis buffer (10 μL) according to manufacturer's instructions. This is then incubated for a further 60 min at rt and changes in HTRF fluorescent emission ratio determined according to manufacturer's instructions using an Envision plate reader (Perkin Elmer, Zaventem, Belgium) with laser excitation. All incubations were performed in duplicate and results were compared to a concentration-effect curve to dopamine. (10^−11 M to 10^−6 M).
Data was analyzed using Excel and PRISM (GraphPad Software) to obtain pEC50 and Erel using the 4-parameter logistic equation (DeLean et al, 1978) where Erel is the fitted maximal response of the test compound minus basal expressed as a percentage relative to that obtained with dopamine which was defined as 100%.

[1] = molecular target: T2, human GABAA receptor α1β2 and γ2 subunits (Homo sapiens, UniProt P14867+P18507+P47870); test: Automated patch clamp studies on the GABAA receptor cells; type: cell-based; details: CHO-K1, 10 μM compound, 15 μM GABA, Table B
T2 construct: expressed in transfected cells
Experimental: CHO-K1 cells stably expressing human GABAA receptor α1β2 and γ2 subunits were used. The cells were harvested using trypsin and maintained in serum-free medium at room temperature. The cells were washed and re-suspended in extracellular solution before testing.
Experiments on human GABAA (α1β2γ2) channels were conducted using an automated patch clamp assay (lonFlux™ HT). The external solution for recording GABAA currents was composed of sodium chloride 137 mM, potassium chloride 4 mM, calcium chloride 1.8 mM, magnesium chloride 1 mM, HEPES 10 mM, and glucose 10 mM. Both external and internal solutions were titrated with NaOH or KOH to obtain a pH of 7.35 and 7.3, respectively. The internal pipette solution contained potassium fluoride 70 mM, potassium chloride 60 mM, sodium chloride 70 mM, HEPES 5 mM, EGTA 5 mM, and Magnesium ATP 4 mM. The final concentration of vehicle used to dilute compounds was 0.33% DMSO in each well. Bicuculline (0.032 to 100 μM) was used as positive control inhibitor. GABA (15 μM) was used as agonist. All recordings were obtained from a holding potential of −60 mV.
The compound addition sequence was the following: one addition of the EC80 concentration of GABA was added to establish baseline response. Each concentration of compound was applied for 30 seconds followed by the addition of 15 μM GABA in the presence of the compound for 2 seconds. The process was repeated with the next ascending concentration of compound. Peak inward currents in response to the GABA additions in the presence of a single concentration of compound were measured. All compound data have been normalized to the baseline peak current induced by addition of 15 μM GABA for 2 seconds.

CYP3A4 = molecular target: T3, CYP3A4 (Homo sapiens, UniProt P08684); test: In vitro assessment of CYP3A4 inhibition potential using cryopreserved human microsomes; type: in vitro ADME; details: human, cryopreserved human microsomes (pooled donors), probe midazolam 2.5 μM (1-hydroxymidazolam formation), 20 μM compound, human microsomes 0.25 mg/ml, Table C
T3 construct: cryopreserved human microsomes (pooled donors); from tissue
Experimental: The objective of the human microsome assay is to characterize the inhibition potential of Compound of formula (I) by measuring the CYP3A4 activities after its co-incubation with midazolam, a specific CYP3A4 substrate.
To this aim, cryopreserved human microsomes (pooled donors) are divided on a 48 well collagen coated plate so that the final concentration is 0.25 mg/ml. The UCB compound is then added in the wells at 20 μM concentration in duplicate. After 30 min incubation, midazolam is added at 2.5 μM concentration. After 15 min, an aliquot is removed and placed into an equal volume of methanol containing internal standard. The samples are centrifuged at 2500 rpm at 4° C. for 20 min. An aliquot of supernatant is diluted with deionised water and levels of 1-hydroxymidazolam is quantified using generic LC MS/MS methods.
The concentrations are compared to those obtained after midazolam incubation at the same concentration but without UCB compound pre-incubation. The results are expressed as % of inhibition.

T3 sequence (P08684 whole entry): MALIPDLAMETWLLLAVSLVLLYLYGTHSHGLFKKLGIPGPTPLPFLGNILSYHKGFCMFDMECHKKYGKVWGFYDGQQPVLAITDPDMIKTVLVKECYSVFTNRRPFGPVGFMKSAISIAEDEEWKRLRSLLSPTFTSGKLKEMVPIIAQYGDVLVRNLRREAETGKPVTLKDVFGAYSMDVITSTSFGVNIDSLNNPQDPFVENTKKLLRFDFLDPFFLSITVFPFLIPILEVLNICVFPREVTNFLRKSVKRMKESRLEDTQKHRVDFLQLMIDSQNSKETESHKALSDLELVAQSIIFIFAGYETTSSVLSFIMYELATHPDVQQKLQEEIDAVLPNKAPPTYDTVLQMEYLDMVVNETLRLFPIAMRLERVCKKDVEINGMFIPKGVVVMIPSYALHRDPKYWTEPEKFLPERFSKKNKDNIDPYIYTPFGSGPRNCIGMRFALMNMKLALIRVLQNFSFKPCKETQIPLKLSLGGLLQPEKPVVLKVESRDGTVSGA
T2 sequence (P14867 28-456): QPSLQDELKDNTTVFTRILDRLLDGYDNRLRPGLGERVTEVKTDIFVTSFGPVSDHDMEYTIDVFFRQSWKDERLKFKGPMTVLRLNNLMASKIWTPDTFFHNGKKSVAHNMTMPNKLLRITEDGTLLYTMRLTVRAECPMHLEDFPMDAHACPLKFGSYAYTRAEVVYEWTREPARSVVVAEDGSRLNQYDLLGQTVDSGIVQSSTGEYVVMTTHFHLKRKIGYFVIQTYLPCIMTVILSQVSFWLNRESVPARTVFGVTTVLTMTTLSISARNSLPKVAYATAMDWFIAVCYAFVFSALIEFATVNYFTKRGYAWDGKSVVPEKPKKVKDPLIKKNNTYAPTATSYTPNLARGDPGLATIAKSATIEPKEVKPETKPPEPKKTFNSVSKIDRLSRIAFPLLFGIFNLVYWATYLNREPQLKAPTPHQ
T2 sequence (P47870 25-512 limits assumed): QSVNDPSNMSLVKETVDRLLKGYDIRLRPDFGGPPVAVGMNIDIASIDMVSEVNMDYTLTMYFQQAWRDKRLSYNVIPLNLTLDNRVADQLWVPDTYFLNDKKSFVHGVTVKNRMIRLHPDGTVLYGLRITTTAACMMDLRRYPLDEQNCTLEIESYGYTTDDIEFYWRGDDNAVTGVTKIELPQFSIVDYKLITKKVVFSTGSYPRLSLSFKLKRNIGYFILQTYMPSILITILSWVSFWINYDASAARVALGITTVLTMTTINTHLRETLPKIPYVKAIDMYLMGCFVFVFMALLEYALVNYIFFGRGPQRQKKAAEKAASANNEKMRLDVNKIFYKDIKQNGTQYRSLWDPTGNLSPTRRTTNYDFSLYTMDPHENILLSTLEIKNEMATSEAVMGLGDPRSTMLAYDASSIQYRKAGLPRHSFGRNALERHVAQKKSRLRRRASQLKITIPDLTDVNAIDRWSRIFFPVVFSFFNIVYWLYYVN
T2 sequence (P18507 40-475): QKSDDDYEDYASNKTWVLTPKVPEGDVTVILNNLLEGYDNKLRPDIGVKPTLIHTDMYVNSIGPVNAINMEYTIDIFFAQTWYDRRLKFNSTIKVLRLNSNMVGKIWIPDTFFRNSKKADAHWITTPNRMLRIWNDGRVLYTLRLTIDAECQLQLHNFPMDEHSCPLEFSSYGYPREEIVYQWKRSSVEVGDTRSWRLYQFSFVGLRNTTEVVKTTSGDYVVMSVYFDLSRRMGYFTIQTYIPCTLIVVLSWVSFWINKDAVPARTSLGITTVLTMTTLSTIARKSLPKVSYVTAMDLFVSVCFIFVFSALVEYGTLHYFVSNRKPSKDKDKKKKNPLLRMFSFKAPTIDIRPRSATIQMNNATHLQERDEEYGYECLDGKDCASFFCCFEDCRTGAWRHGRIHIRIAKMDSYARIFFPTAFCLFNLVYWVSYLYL
T1 sequence (P21728 whole entry): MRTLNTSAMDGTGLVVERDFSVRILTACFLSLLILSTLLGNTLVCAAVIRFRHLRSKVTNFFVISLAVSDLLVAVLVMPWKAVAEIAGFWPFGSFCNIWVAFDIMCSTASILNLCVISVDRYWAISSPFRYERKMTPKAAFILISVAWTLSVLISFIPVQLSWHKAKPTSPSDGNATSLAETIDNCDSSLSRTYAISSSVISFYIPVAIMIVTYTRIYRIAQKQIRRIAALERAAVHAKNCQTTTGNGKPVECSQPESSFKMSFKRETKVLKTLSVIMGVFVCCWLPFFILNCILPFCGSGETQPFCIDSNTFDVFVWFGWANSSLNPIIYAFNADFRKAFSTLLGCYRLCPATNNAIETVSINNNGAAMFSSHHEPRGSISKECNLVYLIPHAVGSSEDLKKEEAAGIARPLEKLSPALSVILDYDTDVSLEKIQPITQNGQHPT

| EC50 (dopamine D1 receptor) | inhibition at 10 µM [1] | inhibition at 15 min, 20 μM (CYP3A4) | SMILES |
| --- | --- | --- | --- |
| 39.8 nM | 0% | 20 to 40% | COc1ccc(Cl)c(CC(=O)N2CC[C@H]3[C@H]([C@H](O)C(F)(F)F)CCC[C@@H]3[C@@H]2C)c1C#N [Example 2, 2-[2-[(1S,4aR,5R,8aS)-1-methyl-5-[(1S)-2,2,2-trifluoro-1-hydroxyethyl]-3,4,4a,5,6,7,8,8a-octahydro-1H-isoquinolin-2-yl]-2-oxoethyl]-3-chloro-6-methoxybenzonitrile] |
| 50.1 nM | -8% | 20 to 40% | C[C@H]1[C@H]2CCC[C@@H]([C@H](O)C(F)(F)F)[C@@H]2CCN1C(=O)Cc1c(Cl)cnc(C(C)(C)O)c1Cl [Example 13, 1-[(1S,4aR,5R,8aS)-1-methyl-5-[(1S)-2,2,2-trifluoro-1-hydroxy-ethyl]-3,4,4a,5,6,7,8,8a-octahydro-1H-isoquinolin-2-yl]-2-[3,5-dichloro-2-(1-hydroxy-1-methyl-ethyl)-4-pyridyl]ethanone] |
